Earlier results in patent publication US20070135454A1, “Bicyclic pyrimidin-4(3h)-ones and analogues and derivatives thereof which modulate the function of the vanilloid-1-receptor(vr1)” (priority 2003, published 2007).

Molecular target: VR1 (Rattus norvegicus, UniProt O35433)
Details: Wahl et al., Mol. Pharmacol, 59:9, 2001

VR1, sequence (O35433 whole entry): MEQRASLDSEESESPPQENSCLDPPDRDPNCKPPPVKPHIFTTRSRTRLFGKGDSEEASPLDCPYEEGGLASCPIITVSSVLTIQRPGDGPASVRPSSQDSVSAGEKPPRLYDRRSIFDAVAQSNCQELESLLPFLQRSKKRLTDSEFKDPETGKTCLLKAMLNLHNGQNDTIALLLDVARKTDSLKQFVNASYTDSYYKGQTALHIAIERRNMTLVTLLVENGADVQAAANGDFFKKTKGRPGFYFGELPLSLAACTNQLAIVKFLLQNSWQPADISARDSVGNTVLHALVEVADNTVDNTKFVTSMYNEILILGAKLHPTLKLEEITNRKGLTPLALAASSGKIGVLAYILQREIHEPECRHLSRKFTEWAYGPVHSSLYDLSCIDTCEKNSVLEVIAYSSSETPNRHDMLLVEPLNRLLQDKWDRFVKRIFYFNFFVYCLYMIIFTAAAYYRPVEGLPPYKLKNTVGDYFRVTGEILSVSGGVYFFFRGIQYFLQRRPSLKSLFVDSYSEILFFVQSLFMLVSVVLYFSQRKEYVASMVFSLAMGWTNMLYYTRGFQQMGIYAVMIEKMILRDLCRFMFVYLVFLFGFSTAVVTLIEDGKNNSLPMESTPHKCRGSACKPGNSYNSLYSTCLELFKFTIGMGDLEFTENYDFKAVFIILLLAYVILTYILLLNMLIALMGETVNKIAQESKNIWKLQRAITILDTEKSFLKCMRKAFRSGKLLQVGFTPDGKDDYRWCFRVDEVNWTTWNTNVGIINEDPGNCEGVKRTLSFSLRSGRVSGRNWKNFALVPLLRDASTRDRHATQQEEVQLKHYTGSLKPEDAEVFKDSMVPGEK

C=C(C)[C@]12C[C@@H](C)[C@@]34O[C@](Cc5ccccc5)(O[C@@H]1[C@@H]3C=C(COC(=O)Cc1cc(I)c(O)c(OC)c1)C[C@]1(O)C(=O)C(C)=C[C@@H]41)O2 [Iodo-resiniferatoxin]
antagonist of VR1 (potency in words): nanomolar antagonist of VR1
